Patent US20100069433A1, “PROPHYLACTIC AND/OR THERAPEUTIC AGENT FOR HYPERLIPIDEMIA” (KOWA COMPANY, LTD., priority 2007, published 2010)

Key:
[1] = tested on: triglyceride concentration in blood plasma; assay: Plasma triglyceride concentration in Zucker fatty rats after repeated oral administration (Example 2); format: in vivo, Male Zucker fatty rats; conditions: compound A 0.1 mg/kg, pitavastatin 10 mg/kg, fenofibrate 100 mg/kg; for triglyceride concentration in blood plasma, Average value ± Standard error / triglyceride concentration in blood plasma, Relative value compared to control group: two weeks (14th day), oral once a day, N = 7-8; for rate of decrease of the triglyceride concentration in blood plasma: two weeks, vs control group
Description: The effect of administration of compound A and pitavastatin on the plasma triglyceride concentration in this animal model was determined according to the following methods.
Male Zucker fatty rats (Crlj: ZUC-Lepr^fa, Japan Charles River Co. Ltd., 10 weeks old) were taken for the test.
Throughout the test period, the rats were bred in a breeding room maintained with a light/dark cycle (bright period under room light: 7 A.M. to 7 P.M.) at a temperature of 23±3° C. and a humidity of 55±15%, and were allowed to freely take solid feedstuff (CE-2; Oriental Yeast Co. Ltd.) and tap water.
Compound A, pitavastatin and fenofibrate (Sigma-Aldrich Co. Ltd.) were each suspended in a 0.5 mass % aqueous solution of methylcellulose (Metolose (registered trademark) SM-400, Shin-Etsu Chemical Co. Ltd.), and the amount of administration of the aqueous solution was adjusted to be 2 mL/kg. The suspension was stored in a shading bottle under refrigeration (4° C.), and the preparation was carried out once every 7 days. Additionally, when the pitavastatin was a hydrate as in the case of the present Example, the water content of a standard product was measured by a conventional method known to those ordinarily skilled in the art, and the amount required in the production of drug based on the water content of the “pitavastatin calcium hydrate” used in the present Example was calculated.
In order to average the total cholesterol concentration and the triglyceride concentration in blood plasma, the rats were divided into the following six groups (eight animals each group), that is, a control group as a first group, a group administered with compound A only (0.1 mg/kg) as a second group, a group administered with pitavastatin only (10 mg/kg) as a third group, a group administered with fenofibrate only (100 mg/kg) as a fourth group, a group administered with pitavastatin (10 mg/kg) and compound A (0.1 mg/kg) in combination as a fifth group, and a group administered with pitavastatin (10 mg/kg) and fenofibrate (100 mg/kg) in combination as a sixth group.
The two medicaments were orally administered repeatedly for 14 days at a rate of once a day (in the morning). The control group of the first group was orally administered with 2 mL/kg of a 0.5 mass % aqueous solution of methylcellulose.
On the 14th day after the initiation of administration, the rats were fasted for 4 hours from administration, then blood was collected, and the triglyceride concentration in blood plasma was measured by an enzymatic method.
A multiple group comparison between the control group and the drug administered groups was conducted using Dunnett's multiple comparison test. A risk rate of less than 5% was determined to have a significant difference.

[2] = tested on: total cholesterol concentration in blood plasma; assay: Total cholesterol concentration in blood plasma of rats after repeated oral administration (Example 1); format: in vivo, Male Sprague Dawley rats; conditions: oral once a day, pitavastatin 10 mg/kg, compound A 0.3 mg/kg, N = 8
Description: (§1) Male Sprague Dawley rats (Crl: CD (SD), Japan Charles River Co. Ltd., 6 weeks old) were taken for the test. Throughout the test period, the rats were bred in a breeding room maintained with a light/dark cycle (bright period under room light: 7 A.M. to 7 P.M.) at a temperature of 23±3° C. and a humidity of 55±15%, and were allowed to freely take solid feedstuff (CE-2; Oriental Yeast Co. Ltd.) and tap water. Compound A and pitavastatin were each suspended in a 0.5 mass % aqueous solution of methylcellulose (Metolose (registered trademark) SM-400, Shin-Etsu Chemical Co. Ltd.), and the amount of administration of the aqueous solution was adjusted to be 2 mL/kg. The suspension was stored in a shading bottle under refrigeration (4° C.), and the preparation was performed once every 7 days. Additionally, when the pitavastatin is a hydrate as in the case of the present Example, the water content of a standard product can be measured by a conventional method known to those ordinarily skilled in the art, and the amount required in the production of drug based on the water content of the “pitavastatin calcium hydrate” used in the present Example can be calculated. […] The two medicaments were orally administered repeatedly for 14 days at a rate of once a day (in the morning). The control group of the first group was orally administered with 2 mL/kg of a 0.5 mass % aqueous solution of methylcellulose. […] Furthermore, the LDL-cholesterol concentration in blood plasma was measured using high performance liquid chromatography according to the method of Usui et al. (Lipid Res., 43:805-814, 2002). The results were shown in the form of average value±standard error. A multiple group comparison between the control group and the drug administered groups was conducted using Dunnett' s multiple comparison test. A risk rate of less than 5% was determined to have a significant difference.

[3] = tested on: LDL-cholesterol concentration in blood plasma; assay: LDL-cholesterol concentration in blood plasma of rats after repeated oral administration (Example 1); format: in vivo, Male Sprague Dawley rats; conditions: one week after the administration, oral once a day, pitavastatin 10 mg/kg, compound A 0.3 mg/kg, N = 8; for LDL-cholesterol concentration in blood plasma, Average value ± Standard error: in mg/dL
Description: as §1

[4] = tested on: triglyceride concentration in blood plasma; assay: Triglyceride concentration in blood plasma of rats after repeated oral administration (Example 1); format: in vivo, Male Sprague Dawley rats; conditions: two weeks after the initiation of administration (14th day), oral once a day, pitavastatin 10 mg/kg, compound A 0.3 mg/kg, N = 8; for triglyceride concentration in blood plasma, Average value ± Standard error: in mg/dL
Description: as §1

[5] = tested on: blood glucose level; assay: Oral glucose tolerance test in Zucker fatty rats (Example 3); format: in vivo, Male Zucker fatty rats; conditions: 28 days oral once a day, compound A 0.3 mg/kg, pitavastatin 3 mg/kg, fenofibrate 100 mg/kg
Description: As a method for examining diabetes mellitus, an oral glucose tolerance test, that is, a method in which a test subject fasted overnight is orally fed with a glucose solution, and blood is collected before and after the feeding, to examine the degree of increase in the blood glucose level, is widely performed. Thus, the Zucker fatty rat was used and administered with medicaments, and then an oral glucose tolerance test was performed to investigate the influence of the medicament of the present invention exerted on the blood glucose level. Male Zucker fatty rats (Crlj: ZUC-Lepr^fa, Japan Charles River Co. Ltd., 9 weeks old) were taken for the test. […] Additionally, when the pitavastatin was a hydrate as in the case of the present Example, the water content of a standard product was measured by a conventional method known to those ordinarily skilled in the art, and the amount required in the production of drug based on the water content of the “pitavastatin calcium hydrate” used in the present Example was calculated. […] The blood glucose level was measured by an enzymatic method. […] A risk rate of less than 5% was determined to have a significant difference.

[6] = tested on: total plasma cholesterol concentration; conditions: results of clinical trials; cited from earlier work
[7] = one week after administration (7th day), 4 h fasted
[8] = two weeks after the initiation of administration (14th day)
[9] = two weeks after the initiation of administration (14th day), in mg/dL

CC(C)OC(=O)C(C)(C)Oc1ccc(C(=O)c2ccc(Cl)cc2)cc1 [Fenofibrate, fenofibrate]
triglyceride concentration in blood plasma, Average value ± Standard error [1]: 546.3 ± 58.9 mg/dL | triglyceride concentration in blood plasma, Relative value compared to control group [1]: 0.841 | rate of decrease of the triglyceride concentration in blood plasma [1]: 16%

CC[C@@H](Oc1cccc(CN(CCCOc2ccc(OC)cc2)c2nc3ccccc3o2)c1)C(=O)O [Compound A, (R)-2-[3-[[N-(Benzoxazol-2-yl)-N-3-(4-methoxyphenoxy)propyl]aminomethyl]phenoxy]butyric acid]
total cholesterol concentration in blood plasma, Average value ± Standard error [2, 7]: 48.3 ± 1.8 mg/dL | total cholesterol concentration in blood plasma, Relative value compared to control group ([2]; one week after administration (7th day)): 0.792 | total cholesterol concentration in blood plasma, Relative value compared to control group ([2]; one week after administration (7th day), listed as compound A): 0.903 | total cholesterol concentration in blood plasma, Relative value compared to control group [2, 8]: 0.752 | total cholesterol concentration in blood plasma, Average value ± Standard error [2, 9]: 43.4 ± 1.9 | LDL-cholesterol concentration in blood plasma, Relative value compared to control group [3]: 0.698 | LDL-cholesterol concentration in blood plasma, Average value ± Standard error [3]: 8.1 ± 0.4 | triglyceride concentration in blood plasma, Relative value compared to control group [4]: 0.806 | triglyceride concentration in blood plasma, Average value ± Standard error [4]: 33.3 ± 2.2 | triglyceride concentration in blood plasma, Relative value compared to control group ([4]; listed as compound A): 0.942 | triglyceride concentration in blood plasma, Average value ± Standard error [1]: 518.0 ± 106.0 mg/dL | triglyceride concentration in blood plasma, Relative value compared to control group [1]: 0.798 | rate of decrease of the triglyceride concentration in blood plasma [1]: 20% | change in blood glucose level over time after glucose loading (FIG. 3A) [5]: rapid increases in the blood glucose level

O=C(O)C[C@H](O)C[C@H](O)/C=C/c1c(C2CC2)nc2ccccc2c1-c1ccc(F)cc1 [Pitavastatin, pitavastatin calcium hydrate]
total cholesterol concentration in blood plasma, Average value ± Standard error [2, 7]: 55.1 ± 5.7 mg/dL | total cholesterol concentration in blood plasma, Relative value compared to control group ([2]; one week after administration (7th day), calcium hydrate): 0.903 | total cholesterol concentration in blood plasma, Relative value compared to control group ([2]; one week after administration (7th day), listed as pitavastatin, calcium hydrate): 0.792 | total cholesterol concentration in blood plasma, Relative value compared to control group [2, 8]: 0.997 | total cholesterol concentration in blood plasma, Average value ± Standard error [2, 9]: 57.5 ± 6.6 | LDL-cholesterol concentration in blood plasma, Relative value compared to control group [3]: 0.974 | LDL-cholesterol concentration in blood plasma, Average value ± Standard error [3]: 11.3 ± 1.8 | triglyceride concentration in blood plasma, Relative value compared to control group [4]: 0.942 | triglyceride concentration in blood plasma, Relative value compared to control group ([4]; calcium hydrate): 0.806 | triglyceride concentration in blood plasma, Average value ± Standard error [4]: 38.9 ± 3.1 | triglyceride concentration in blood plasma, Average value ± Standard error [1]: 612.2 ± 61.0 mg/dL | triglyceride concentration in blood plasma, Relative value compared to control group [1]: 0.943 | rate of decrease of the triglyceride concentration in blood plasma [1]: 6% | change in blood glucose level over time after glucose loading (FIG. 3A) [5]: rapid increases in the blood glucose level | rate of improvement in the total plasma cholesterol concentration [6]: 93.9%
